Reference: PubChem BioAssay AID330 (DTP/NCI, 2004)
Several values for one entry are separate records, joined by “and”; a condition that tells them apart may be missing. Equal entries are not always repeated. Toxic doses and inconclusive results are not listed. Rule for the calls: active = survival T/C of 150% or more; inactive = T/C below 125% in these data.

System: P388 leukemia ip, CD2F1 mice, survival T/C
Assay: NCI In Vivo Anticancer Drug Screen. Data for tumor model P388 Leukemia (intraperitoneal) in CD2F1 (CDF1) mice
Conditions: endpoint: median survival time, higher = longer survival
How it was run: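 Mice carrying the transplanted tumor received test compound or vehicle. Survival was recorded in each group, and the value is the treated-group measurement divided by that of the vehicle-treated control group.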

[1] = dose: 100.0 mg/kg/injection, schedule: Q04DX003 (ip), vehicle: saline with Tween-80
[2] = dose: 400.0 mg/kg/injection, schedule: Q04DX003 (ip), vehicle: saline with Tween-80
[3] = dose: 100.0 mg/kg/injection, schedule: Q04DX002 (ip), vehicle: Klucel (hydroxypropylcellulose) (HPC)
[4] = dose: 200.0 mg/kg/injection, schedule: Q04DX002 (ip), vehicle: Klucel (hydroxypropylcellulose) (HPC)
[5] = dose: 400.0 mg/kg/injection, schedule: Q04DX002 (ip), vehicle: Klucel (hydroxypropylcellulose) (HPC)
[6] = dose: 50.0 mg/kg/injection, schedule: Q01DX005 (ip), vehicle: saline with Tween-80
[7] = dose: 100.0 mg/kg/injection, schedule: Q01DX005 (ip), vehicle: saline with Tween-80
[8] = dose: 200.0 mg/kg/injection, schedule: Q01DX005 (ip), vehicle: saline with Tween-80
[9] = dose: 60.0 mg/kg/injection, schedule: Q01DX005 (ip), vehicle: saline
[10] = dose: 120.0 mg/kg/injection, schedule: Q01DX005 (ip), vehicle: saline
[11] = dose: 50.0 mg/kg/injection, schedule: Q01DX009 (ip), vehicle: Klucel (hydroxypropylcellulose) (HPC)
[12] = dose: 100.0 mg/kg/injection, schedule: Q01DX009 (ip), vehicle: Klucel (hydroxypropylcellulose) (HPC)
[13] = dose: 200.0 mg/kg/injection, schedule: Q01DX009 (ip), vehicle: Klucel (hydroxypropylcellulose) (HPC)
[14] = dose: 25.0 mg/kg/injection, schedule: Q04DX003 (ip), vehicle: saline with Tween-80
[15] = dose: 50.0 mg/kg/injection, schedule: Q04DX003 (ip), vehicle: saline with Tween-80

Measured: T/C

NC(=O)NN(Cc1cccc(Cl)c1)N=O
inactive: dose: 100.0 mg/kg/injection, schedule: Q04DX003 (ip), vehicle: Klucel (hydroxypropylcellulose) (HPC) 95 % of control | dose: 200.0 mg/kg/injection, schedule: Q04DX003 (ip), vehicle: Klucel (hydroxypropylcellulose) (HPC) 94 % of control | dose: 400.0 mg/kg/injection, schedule: Q04DX003 (ip), vehicle: Klucel (hydroxypropylcellulose) (HPC) 98 % of control

Cc1ccc(S(=O)(=O)NC(=S)Nc2ccccc2)cc1
inactive: [1] 99 % of control | dose: 200.0 mg/kg/injection, schedule: Q04DX003 (ip), vehicle: saline with Tween-80 108 % of control | [2] 100 % of control

O=c1[nH]c2n[nH]c(=S)n2c2c1CCC2
inactive: dose: 50.0 mg/kg/injection, schedule: Q04DX002 (ip), vehicle: saline with Tween-80 99 % of control | dose: 100.0 mg/kg/injection, schedule: Q04DX002 (ip), vehicle: saline with Tween-80 97 % of control | dose: 200.0 mg/kg/injection, schedule: Q04DX002 (ip), vehicle: saline with Tween-80 99 % of control

Cc1ccc(S(=O)(=O)NC(CN)C(=O)O)cc1 (configuration not stated)
inactive: dose: 25.0 mg/kg/injection, schedule: Q01DX009 (ip), vehicle: other 104 % of control | dose: 50.0 mg/kg/injection, schedule: Q01DX009 (ip), vehicle: other 101 % of control | dose: 100.0 mg/kg/injection, schedule: Q01DX009 (ip), vehicle: other 101 % of control | dose: 200.0 mg/kg/injection, schedule: Q01DX009 (ip), vehicle: other 107 % of control | dose: 400.0 mg/kg/injection, schedule: Q01DX009 (ip), vehicle: other 104 % of control

CC(=O)Oc1cc2c(c3ccccc13)OC(=O)CCCCCCCCCCC2=O
inactive: [3] 93 % of control | [4] 118 % of control | [5] 107 % of control

COC(=O)Nc1ccc2c(c1)Cc1cc(NC(=O)OC)ccc1-2
inactive: [6] 94 % of control | [7] 92 % of control | [8] 90 % of control

CSC(=C(C#N)C#N)N1CC1
inactive: dose: 12.5 mg/kg/injection, schedule: Q01DX001 (ip), vehicle: DMSO 103 % of control | dose: 25.0 mg/kg/injection, schedule: Q01DX001 (ip), vehicle: DMSO 97 % of control | dose: 50.0 mg/kg/injection, schedule: Q01DX001 (ip), vehicle: DMSO 96 % of control

CN(C)c1ccc2nc3ccc(=N)cc-3sc2c1
inactive: [9] 114 % of control | [10] 118 % of control

O=c1cccccc1O
inactive: dose: 12.5 mg/kg/injection, schedule: Q01DX009 (ip), vehicle: saline 105 % of control and 107 % of control | dose: 25.0 mg/kg/injection, schedule: Q01DX009 (ip), vehicle: saline 100 % of control

COC(=O)c1ccc(C(=O)OC)c2nn3c(N)nnc3nc12
inactive: [9] 110 % of control | [10] 100 % of control | dose: 240.0 mg/kg/injection, schedule: Q01DX005 (ip), vehicle: saline 100 % of control

COCCCNS(=O)(=O)c1ncnc2nc[nH]c12
inactive: dose: 100.0 mg/kg/injection, schedule: Q01DX009 (ip), vehicle: saline 104 % of control | [1] 108 % of control | dose: 200.0 mg/kg/injection, schedule: Q01DX009 (ip), vehicle: saline 100 % of control | dose: 400.0 mg/kg/injection, schedule: Q01DX009 (ip), vehicle: saline 86 % of control | [2] 108 % of control

O=[N+]([O-])c1ccc(C=Nc2ccc3c4c(cccc24)-c2ccccc2-3)cc1
inactive: dose: 50.0 mg/kg/injection, schedule: Q01DX009 (ip), vehicle: saline with Tween-80 101 % of control | dose: 100.0 mg/kg/injection, schedule: Q01DX009 (ip), vehicle: saline with Tween-80 90 % of control | dose: 200.0 mg/kg/injection, schedule: Q01DX009 (ip), vehicle: saline with Tween-80 108 % of control

O=P(O)(O)Oc1ccc(NCCO)cc1
inactive: dose: 50.0 mg/kg/injection, schedule: Q01DX001 (ip), vehicle: saline 107 % of control | dose: 100.0 mg/kg/injection, schedule: Q01DX001 (ip), vehicle: saline 99 % of control | dose: 200.0 mg/kg/injection, schedule: Q01DX001 (ip), vehicle: saline 100 % of control | dose: 400.0 mg/kg/injection, schedule: Q01DX001 (ip), vehicle: saline 100 % of control

CC(=O)C1C(=O)C(=O)N(Cc2ccccc2)C1=O (configuration not stated)
inactive: [11] 96 % of control | [12] 114 % of control | [13] 100 % of control

OC(CCl)Cc1ccccc1 (configuration not stated)
inactive: [14] 104 % of control | [15] 100 % of control | [1] 100 % of control

COC(CNc1nc2c(s1)c1c(O)c3c(O)c(C)c4c(c32)C(=O)C(C)(O/C=C\C(OC)C(C)C(OC(C)=O)C(C)C(O)C(C)C(O)C(C)/C=C/C=C(/C)C(=O)N1)O4)OC (configuration not stated)
inactive: dose: 25.0 mg/kg/injection, schedule: Q01DX009 (ip), vehicle: Klucel (hydroxypropylcellulose) (HPC) 93 % of control | [11] 95 % of control | [12] 93 % of control | [13] 94 % of control

COc1ccc(C2=C(Cl)C(=O)N(c3ccccc3C)C(=O)C2(Cl)Cl)cc1
inactive: [3] 101 % of control | [4] 112 % of control | [5] 117 % of control

CC(C)NC(=O)OCCS(=O)c1c(Cl)c(Cl)nn1C (configuration not stated)
inactive: dose: 60.0 mg/kg/injection, schedule: Q01DX005 (ip), vehicle: saline with Tween-80 117 % of control | dose: 120.0 mg/kg/injection, schedule: Q01DX005 (ip), vehicle: saline with Tween-80 109 % of control

CCOC(=O)C(=CNC1CC(OC2C[C@](O)(C(C)=O)Cc3c(O)c4c(c(O)c32)C(=O)c2c(OC)cccc2C4=O)OC(C)C1O)C(=O)OCC (some centres not stated)
inactive: dose: 6.25 mg/kg/injection, schedule: Q04DX003 (ip), vehicle: saline with Tween-80 95 % of control | dose: 12.5 mg/kg/injection, schedule: Q04DX003 (ip), vehicle: saline with Tween-80 100 % of control | [14] 104 % of control | [15] 108 % of control

COC(=O)C1=C(C(=O)OC)[C@@H]2CCC[C@H]1[C@H]1[C@@H]2N=NN1c1ccccc1
inactive: [6] 100 % of control | [7] 98 % of control | [8] 100 % of control

NC(=S)N/N=C\c1nc2ccccc2c2ccccc12
inactive: dose: 50.0 mg/kg/injection, schedule: Q04DX002 (ip), vehicle: Klucel (hydroxypropylcellulose) (HPC) 99 % of control | [3] 95 % of control | [4] 94 % of control
